Measured values published in patent US5968763A, “Method for screening inhibitors of the enzyme which cleaves the anchor of surface proteins from gram positive bacteria” (The Rockefeller University, priority 1997, dated 1999).

Test system: LPXTGX cleavage enzyme (carbonate extract of D471 membranes)
Assay: Cleavage of 125I-labeled LPSTGE synthetic peptide linked to beads (release of radiolabel) by carbonate extract of streptococcal membranes
Format: biochemical, M type 6 streptococcal strain D471 (Streptococcus pyogenes)
Details: carbonate extract of the membranes as enzyme source, FIG. 3; for cleavage activity in the presence of inhibitor: 1 mM each
Method: The peptide was radiolabeled with ^125 I using Iodobeads and then the labeled peptide was purified on a Sephadex G10 column and covalently linked by its N-terminal end by EDC (ethyl-3-(3 […])carbodiimide HCl) to an extended arm on a commercially available bead (3M Emphase Biospheres AB1 from Pierce, Rockford, Ill.), and the excess radiolabel removed by washing the beads with 1 M NaCl buffer.
M type 6 streptococcal strain D471 was treated with 0.1 M sodium carbonate (pH 11.5) and incubated for 30 minutes at 0° C. to extract the streptococcal membranes.
The resulting extract was mixed with the labeled beads of Example 1 (50 μl sample, 50 μl 50 mM Tris HCl (pH 8.0) with 10 mM DTT).
The carbonate extract was chromatographed on a 20 HQ perfusion chromatography column, using a Biocad Sprint instrument (Perceptive Biosystem), employing a NaCl gradient from 0 mM to 500 mM (24.9 ml) followed by a 500 mM to 1000 mM (33.2 ml) gradient. To measure the enzyme activity found in the fractions, a 50 μl sample from each fraction was mixed in a reaction buffer in a final volume of 100 μl containing 5 mM DTT and 5 μl of the bead-substrate as described in Example 1. Control samples containing only buffer and the substrate were also mixed and incubated at 37° C. for 4 hours under constant slow rotation. The released radioactivity was then measured in 25 μl of the supernatant obtained after centrifugation. The specific activity was measured after subtracting the control values from the test samples.
FIG. 3 illustrates the enzymatic activity of the carbonate extract of the membranes (as the enzyme source) in the presence of various inhibitors and activators.

SMILES: O=C(O)c1cc[c]([Hg][OH])cc1 [PHMB, parahydroxymercuribenzoic acid]
- cleavage activity in the presence of inhibitor: inhibited cleavage activity

SMILES: O=S(=O)(O)c1cc[c]([Hg][OH])cc1 [PHMPS, parahydroxymercuriphenylsulfonic acid]
- cleavage activity in the presence of inhibitor: inhibited cleavage activity

SMILES: [Ca+2] [calcium]
- enzymatic (cleavage) activity in the presence of divalent cations (divalent cations such as calcium): enhanced

SMILES: OC(CS)C(O)CS (stereo not shown) [DTT]
- enzymatic (cleavage) activity in the presence of activator (5 mM DTT): enhanced
